Values of other authors, collected in patent US20230285554A1, “COMBINED MEDICATION FOR TREATING SOFT TISSUE SARCOMA” (CHIA TAI TIANQING PHARMACEUTICAL GROUP CO., LTD., priority 2020, published 2023).

Tested on: STS
Details: first-line chemotherapy

Row | SMILES | efficacy in words
1 | O=P1(NCCCl)OCCCN1CCCl (centres unmarked) [ifosfamide] | best efficacy
2 | COc1cccc2c1C(=O)c1c(O)c3c(c(O)c1C2=O)C[C@@](O)(C(=O)CO)C[C@@H]3O[C@H]1C[C@H](N)[C@H](O)[C@H](C)O1 [adriamycin] | best efficacy
